Patent US5468633A, “Human endothelin converting enzyme obtained from blood or placenta” (Nisshin Flour Milling Co., Ltd., priority 1993, dated 1995)

Test system: endothelin converting enzyme
Assay: Effects of various inhibitors on the activity of converting big endothelin-1 to endothelin-1 (residual enzymatic activity)
Type: biochemical, human
Conditions: 37° C., 30 minutes preincubation, pH 7.0, untreated enzyme = 100
Procedure: 15 μl of a 20 nmol/ml big endothelin-1 solution was added to 0.3 ml of an enzyme solution (10 mM tris-hydrochloric acid-0.15M sodium chloride buffer; pH 7.0), and the mixture was reacted at 37° C. for 6 hours. After completion of the reaction, 6 μl of a 0.1M EDTA solution was added to terminate the reaction.
Subsequently, the resultant endothelin-1 was assayed according to a sandwich enzyme immunoassay (EIA) method. An enzymatic activity of converting 1 pmol of big endothelin-1 to endothelin-1 per hour under the above-described reaction conditions is termed 1 U (unit).
A sample and an endothelin standard solution of a predetermined concentration were respectively applied to a 96-hole microplate on which anti-endothelin monoclonal antibody had been immobilized to thereby cause the reaction. After washing the microplate, peroxidase-labeled anti-endothelin polyclonal antibody was added to thereby cause the reaction. After washing the microplate, activity of bound peroxidase was assayed. Endothelin-1 in the sample was assayed based on the calibration curve drawn by using endothelin standard solutions having a predetermined concentration of endothelin.
The enzyme of the invention was tested for the effects of various inhibitors against the activity of converting big endothelin-1 to endothelin-1.
The enzyme was incubated in 0.3 ml of a reaction solution (10 mM tris-hydrochloric acid-0.15M sodium chloride buffer; pH 7.0) containing various inhibitors at 37° C. for 30 minutes, and the residual enzymatic activity was measured in the above-described manner. Residual activities in the presence of various inhibitors are shown in Table 1 as relative activity taking the activity of untreated enzyme as 100.

Row | SMILES | Relative Activity (%) (inhibitor 0.1 mM) | also measured
1 | CC(C)C[C@H](NC(=O)[C@@H](NC(=O)N[C@@H](Cc1ccccc1)C(=O)O)[C@@H]1CCN=C(N)N1)C(=O)N[C@H](C=O)Cc1ccccc1 [Chymostatin] |  | Relative Activity (%) (inhibitor 0.01 mM): 20%
2 | O=S(=O)(F)Cc1ccccc1 [Phenylmethanesulfonyl fluoride] |  | Relative Activity (%) (inhibitor 1 mM): 7%
3 | CC(C)C[C@H](NP(=O)(O)O[C@@H]1O[C@@H](C)[C@H](O)[C@@H](O)[C@H]1O)C(=O)N[C@@H](Cc1c[nH]c2ccccc12)C(=O)O [Phosphoramidon] | 0 | 
4 | O=C(O)CNC(=O)C(CS)Cc1ccccc1 (stereo not shown) [Thiorphan] | 0 | 
